Experimental data as given in patent US12286404B2, “Solid state forms of Mitapivat and process for preparation thereof” (TEVA PHARMACEUTICALS INTERNATIONAL GMBH, priority 2020, dated 2025).
Where a name gives a salt, the structure may show the parent alone.

Key:
Format in all cases: physicochemical
[1] = Storage stability under humidity/temperature conditions; settings: for stability under regular conditions: 60% RH at RT; for stability under regular conditions / stability under accelerated conditions: for at least one month; for stability under accelerated conditions: 75% RH at 40° C.; for stability up to 80% RH: up to 80% RH at RT, for at least one week
[2] = Stability under stress conditions (heating, grinding, high pressure); settings: for stability under stress conditions: heating, grinding and high pressure
Hygroscopicity = assay: Hygroscopicity

Row | stability under regular conditions [1] | stability under accelerated conditions [1] | stability under stress conditions [2] | hygroscopicity (Hygroscopicity) | stability up to 80% RH [1] | stability under grinding ([2]; grinding) | Compound
1 | stable | stable | stable | non-hygroscopic |  |  | O=C(c1ccc(NS(=O)(=O)c2cccc3cccnc23)cc1)N1CCN(CC2CC2)CC1 [Form I of Mitapivat HCl, Mitapivat HCl]
2 |  |  |  |  | stable |  | O=C(c1ccc(NS(=O)(=O)c2cccc3cccnc23)cc1)N1CCN(CC2CC2)CC1 [Form III of Mitapivat HCl, Mitapivat HCl]
3 | polymorphically and chemically stable | polymorphically and chemically stable | stable | non-hygroscopic |  |  | Mitapivat hemisulfate:ascorbic acid
4 |  |  |  | non-hygroscopic | stable | stable | Mitapivat phosphate [Form P1 of Mitapivat phosphate]
